Broadly, the IC50 is the concentration at which inhibition is half-maximal. Higher therefore signals weaker potency.

The target of experiment [1] is T1, E-selectin (Homo sapiens, UniProt P16581).
T1 sequence (P16581 whole entry): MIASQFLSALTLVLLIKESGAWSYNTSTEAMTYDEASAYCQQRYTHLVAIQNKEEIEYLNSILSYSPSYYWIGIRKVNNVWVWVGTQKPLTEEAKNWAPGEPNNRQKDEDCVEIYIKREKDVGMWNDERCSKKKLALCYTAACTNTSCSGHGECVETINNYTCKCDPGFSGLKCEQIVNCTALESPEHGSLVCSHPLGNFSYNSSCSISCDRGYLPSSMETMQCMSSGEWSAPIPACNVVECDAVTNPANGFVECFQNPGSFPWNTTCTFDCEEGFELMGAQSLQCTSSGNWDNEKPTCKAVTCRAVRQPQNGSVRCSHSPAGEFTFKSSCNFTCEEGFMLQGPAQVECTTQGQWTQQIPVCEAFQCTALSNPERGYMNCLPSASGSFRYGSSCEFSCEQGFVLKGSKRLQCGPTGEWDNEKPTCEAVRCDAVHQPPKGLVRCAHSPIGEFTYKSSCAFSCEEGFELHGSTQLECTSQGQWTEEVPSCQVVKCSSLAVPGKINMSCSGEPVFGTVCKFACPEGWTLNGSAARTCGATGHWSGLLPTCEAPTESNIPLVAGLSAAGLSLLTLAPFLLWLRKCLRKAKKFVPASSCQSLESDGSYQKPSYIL
The experiment is described as follows: Inhibitory activity against Selectin E.

The target of experiment [2] is T1, E-selectin. The experiment is described as follows: Ability to inhibit sialyl Lewis X binding to Selectin E was determined.

`CCOC(=O)[C@@H](NC(=O)[C@@H]1[C@@H](O)[C@@H](O)CN1C(=O)CCCC(=O)O)[C@@H](C)O[C@@H]1O[C@@H](C)[C@@H](O)C(O)C1O` (some centres not stated) yielded an IC50 against E-selectin [1] of 50 µM.
`CCOC(=O)[C@@H](NC(=O)[C@@H]1C[C@H](O)CN1C(=O)CCCC(=O)O)[C@@H](C)O[C@@H]1O[C@@H](C)[C@@H](O)C(O)C1O` (some centres not stated): it took 1000 µM to reach half-maximal inhibition against E-selectin [1] (IC50).
Compound `CCOC(=O)[C@@H](NC(=O)[C@H]1C[C@H](O)CN1C(=O)CCCC(=O)O)[C@@H](C)O[C@@H]1O[C@@H](C)[C@@H](O)C(O)C1O` (some centres not stated) returned an IC50 at E-selectin [1] of 100 µM.
On the same count and under the same terms, for `CCOC(=O)[C@@H](NC(=O)[C@@H]1C[C@@H](O)CN1C(=O)CCCC(=O)O)[C@@H](C)O[C@@H]1O[C@@H](C)[C@@H](O)C(O)C1O` (some centres not stated) the value was 300 µM.
Same read-out and setting: for `CCOC(=O)[C@@H](NC(=O)[C@H]1C[C@@H](O)CN1C(=O)CCCC(=O)O)[C@@H](C)O[C@@H]1O[C@@H](C)[C@@H](O)C(O)C1O` (some centres not stated) the value was 3000 µM; for `C[C@@H]1O[C@@H](O[C@@H]2CCCC[C@H]2NC(=O)[C@@H]2[C@@H](O)[C@@H](O)CN2C(=O)CCCC(=O)O)C(O)C(O)[C@@H]1O` (some centres not stated), 5000 µM; for `CCOC(=O)[C@@H](NC(=O)C(CO)(CO)NC(=O)CCCC(=O)O)[C@@H](C)O[C@@H]1O[C@@H](C)[C@@H](O)C(O)C1O` (some centres not stated), 900 µM.
On the same count and under the same terms, for `CCOC(=O)[C@@H](NC(=O)[C@H](NC(=O)CCCC(=O)O)[C@@H](O)CO)[C@@H](C)O[C@@H]1O[C@@H](C)[C@@H](O)C(O)C1O` (some centres not stated) the value was 500 µM; for `CCCCCCCCCCCCCCCCOC(=O)CC[C@H](NCCOCCOCCNC(=O)[C@@H](NC(=O)[C@H]1C[C@H](O)CN1C(=O)CCCC(=O)O)[C@@H](C)O[C@@H]1O[C@@H](C)[C@@H](O)C(O)C1O)C(=O)OCCCCCCCCCCCCCCCC` (some centres not stated), 500 µM.
Take `CCCCCCCCCCCCCCCCOC(=O)CC[C@H](NC(=O)CNC(=O)[C@@H](NC(=O)[C@H]1C[C@H](O)CN1C(=O)CCCC(=O)O)[C@@H](C)O[C@@H]1O[C@@H](C)[C@@H](O)C(O)C1O)C(=O)OCCCCCCCCCCCCCCCC` (some centres not stated): 500 µM corresponded to half-maximal inhibition against E-selectin [1] (IC50).
Same read-out and setting: for `CCOC(=O)[C@@H](NC(=O)C1C[C@@H](O)CN1C(=O)CCCC(=O)O)[C@@H](C)O[C@H]1O[C@@H](C)[C@@H](O)C(O)C1O` (single isomer, unassigned) the value was 100 µM.
For the compound `CC(=O)N[C@H]1[C@H]([C@H](O)[C@H](O)CO)O[C@@](O[C@H]2[C@@H](O)[C@@H](CO)O[C@@H](O[C@@H]([C@H](O[C@@H]3O[C@@H](C)[C@@H](O)[C@@H](O)[C@@H]3O)[C@H](C=O)NC(C)=O)[C@H](O)CO)[C@@H]2O)(C(=O)O)C[C@@H]1O` [SIALYL LEWIS X], on E-selectin [2], the IC50 came out at 500 µM.
